Experiments:
[1] = test system: Glomerella lagenarium (Colletotrichum lagenarium); assay: Fungicidal activity against Glomerella lagenarium (Colletotrichum lagenarium), liquid culture, cucumber, preventative (anthracnose); type: cell-based; settings: Colletotrichum orbiculare, liquid culture (PDB), growth inhibition measured photometrically 3-4 days after application, compared to untreated control
In short: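 Glomerella lagenarium conidia in potato dextrose broth were exposed in 96-well plates to test compound diluted from DMSO stock with 0.025% Tween20 and incubated at 24 °C. Growth inhibition was read photometrically 3–4 days after application, as percent activity relative to untreated check.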

Phakopsora pachyrhizi = assay: Fungicidal activity against Phakopsora pachyrhizi, soybean, leaf disc preventative (Asian soybean rust); type: in vivo; settings: foliar, 288 h, 12-14 days after application, compared to untreated control
In short: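 Soybean leaf discs on water agar were sprayed with compound diluted in water, then inoculated one day later with a spore suspension on the lower leaf surface. After 24-36 h dark at 20 °C, 75% rh, discs were held at 20 °C, 12 h light/day. Percent disease control versus untreated assessed 12-14 days post-application.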

[2] = test system: Puccinia recondita f. sp. tritici; assay: Fungicidal activity against Puccinia recondita f. sp. tritici, wheat, leaf disc curative (brown rust); type: in vivo; settings: foliar, 144 h, wheat leaf segments, curative (applied 1 day after inoculation), 6-8 days after application, compared to untreated control
In short: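 Wheat cv. Kanzler leaf segments on agar, inoculated with brown rust spores and kept dark at 19 °C, 75% rh; formulated compound sprayed 1 day after inoculation (curative). Incubated 19 °C, 75% rh, 12 h light/dark; percent disease control vs untreated scored 6–8 days after application.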

[3] = test system: Puccinia recondita f. sp. tritici; assay: Fungicidal activity against Puccinia recondita f. sp. tritici, wheat, leaf disc preventative (brown rust); type: in vivo; settings: foliar, wheat leaf segments, preventative (inoculated 1 day after application), 7-9 days after application, compared to untreated control
In short: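 Wheat cv. Kanzler leaf segments on water agar sprayed with compound (DMSO stock diluted in water), then inoculated with spore suspension 1 day later. Incubated at 19 °C, 75% rh, 12 h light/12 h dark; percent disease control versus untreated scored at 7-9 days after application.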

## O=C1CCON1Cc1ccc(-c2noc(C(F)(F)F)n2)cc1 [Compound A-5, 2-[[4-[5-(trifluoromethyl)-1,2,4-oxadiazol-3-yl]phenyl]methyl]isoxazolidin-3-one]
[1]
  inhibition of growth at 20 ppm: ≥ 80%
Phakopsora pachyrhizi
  pest or weed control at 200 ppm: ≥ 80%
[2]
  pest or weed control at 200 ppm: ≥ 80%
[3]
  pest or weed control at 200 ppm: ≥ 80%
other
  melting point: 54 to 58 °C

## CC1CCN(Cc2ccc(-c3noc(C(F)(F)F)n3)cc2)C1=O (centres unmarked) [Compound A-7, 3-methyl-1-[[4-[5-(trifluoromethyl)-1,2,4-oxadiazol-3-yl]phenyl]methyl]pyrrolidin-2-one]
[1]
  inhibition of growth at 20 ppm: ≥ 80%
Phakopsora pachyrhizi
  pest or weed control at 200 ppm: ≥ 80%
[2]
  pest or weed control at 200 ppm: ≥ 80%
[3]
  pest or weed control at 200 ppm: ≥ 80%
other
  melting point: 83 to 88 °C

## O=C1C2C=CC(C2)N1Cc1ccc(-c2noc(C(F)(F)F)n2)cc1 (centres unmarked) [Compound A-9, 3-[[4-[5-(trifluoromethyl)-1,2,4-oxadiazol-3-yl]phenyl]methyl]-3-azabicyclo[2.2.1]hept-5-en-2-one]
[1]
  inhibition of growth at 20 ppm: ≥ 80%
Phakopsora pachyrhizi
  pest or weed control at 200 ppm: ≥ 80%
[2]
  pest or weed control at 200 ppm: ≥ 80%
[3]
  pest or weed control at 200 ppm: ≥ 80%
other
  melting point: 50 to 53 °C

## O=C1CCCN1Cc1ccc(-c2noc(C(F)(F)F)n2)cc1F [Compound A-22, 1-[[2-fluoro-4-[5-(trifluoromethyl)-1,2,4-oxadiazol-3-yl]phenyl]methyl]pyrrolidin-2-one]
[1]
  inhibition of growth at 20 ppm: ≥ 80%
Phakopsora pachyrhizi
  pest or weed control at 200 ppm: ≥ 80%
[2]
  pest or weed control at 200 ppm: ≥ 80%
[3]
  pest or weed control at 200 ppm: ≥ 80%
other
  melting point: 55 to 60 °C

## CN1CC(=O)N(Cc2ccc(-c3noc(C(F)(F)F)n3)cc2)CC1=O [Compound A-26, 1-methyl-4-[[4-[5-(trifluoromethyl)-1,2,4-oxadiazol-3-yl]phenyl]methyl]piperazine-2,5-dione]
[1]
  inhibition of growth at 20 ppm: ≥ 80%
Phakopsora pachyrhizi
  pest or weed control at 200 ppm: ≥ 80%
[2]
  pest or weed control at 200 ppm: ≥ 80%
[3]
  pest or weed control at 200 ppm: ≥ 80%
other
  melting point: 134 to 142 °C

## CC(C)(C)OC(=O)N1CCN(Cc2ccc(-c3noc(C(F)(F)F)n3)cc2)C(=O)C1 [Compound A-30, tert-butyl 3-oxo-4-[[4-[5-(trifluoromethyl)-1,2,4-oxadiazol-3-yl]phenyl]methyl]piperazine-1-carboxylate]
[1]
  inhibition of growth at 20 ppm: ≥ 80%
[2]
  pest or weed control at 200 ppm: ≥ 80%
[3]
  pest or weed control at 200 ppm: ≥ 80%
other
  melting point: 96 to 99 °C

## CNC(=O)N1CCN(Cc2ccc(-c3noc(C(F)(F)F)n3)cc2)C(=O)C1 [Compound A-33, N-methyl-3-oxo-4-[[4-[5-(trifluoromethyl)-1,2,4-oxadiazol-3-yl]phenyl]methyl]piperazine-1-carboxamide]
[1]
  inhibition of growth at 20 ppm: ≥ 80%
Phakopsora pachyrhizi
  pest or weed control at 200 ppm: ≥ 80%
[2]
  pest or weed control at 200 ppm: ≥ 80%
[3]
  pest or weed control at 200 ppm: ≥ 80%
other
  melting point: 114 to 118 °C

## CN(C)C(=O)N1CCN(Cc2ccc(-c3noc(C(F)(F)F)n3)cc2)C(=O)C1 [Compound A-34, N,N-dimethyl-3-oxo-4-[[4-[5-(trifluoromethyl)-1,2,4-oxadiazol-3-yl]phenyl]methyl]piperazine-1-carboxamide]
[1]
  inhibition of growth at 20 ppm: ≥ 80%
Phakopsora pachyrhizi
  pest or weed control at 200 ppm: ≥ 80%
[2]
  pest or weed control at 200 ppm: ≥ 80%
[3]
  pest or weed control at 200 ppm: ≥ 80%
other
  melting point: 111 to 114 °C

## COCCNC(=O)N1CCN(Cc2ccc(-c3noc(C(F)(F)F)n3)cc2)C(=O)C1 [Compound A-38, N-(2-methoxyethyl)-3-oxo-4-[[4-[5-(trifluoromethyl)-1,2,4-oxadiazol-3-yl]phenyl]methyl]piperazine-1-carboxamide]
Phakopsora pachyrhizi
  pest or weed control at 200 ppm: ≥ 80%
[2]
  pest or weed control at 200 ppm: ≥ 80%
[3]
  pest or weed control at 200 ppm: ≥ 80%
other
  melting point: 120 to 128 °C

## CS(=O)(=O)N1CCN(Cc2ccc(-c3noc(C(F)(F)F)n3)cc2)C(=O)C1 [Compound A-41, 4-methylsulfonyl-1-[[4-[5-(trifluoromethyl)-1,2,4-oxadiazol-3-yl]phenyl]methyl]piperazin-2-one]
[1]
  inhibition of growth at 20 ppm: ≥ 80%
Phakopsora pachyrhizi
  pest or weed control at 200 ppm: ≥ 80%
[2]
  pest or weed control at 200 ppm: ≥ 80%
[3]
  pest or weed control at 200 ppm: ≥ 80%
other
  melting point: 155 to 160 °C

## O=C1CCCC(=O)N1Cc1ccc(-c2noc(C(F)(F)F)n2)cc1 [Compound A-49, 1-[[4-[5-(trifluoromethyl)-1,2,4-oxadiazol-3-yl]phenyl]methyl]piperidine-2,6-dione]
[1]
  inhibition of growth at 20 ppm: ≥ 80%
Phakopsora pachyrhizi
  pest or weed control at 200 ppm: ≥ 80%
[2]
  pest or weed control at 200 ppm: ≥ 80%
[3]
  pest or weed control at 200 ppm: ≥ 80%
other
  melting point: 104 to 108 °C

## O=C1CCC(=O)N1Cc1ccc(-c2noc(C(F)(F)F)n2)cc1 [Compound A-51, 1-[[4-[5-(trifluoromethyl)-1,2,4-oxadiazol-3-yl]phenyl]methyl]pyrrolidine-2,5-dione]
[1]
  inhibition of growth at 20 ppm: ≥ 80%
Phakopsora pachyrhizi
  pest or weed control at 200 ppm: ≥ 80%
[2]
  pest or weed control at 200 ppm: ≥ 80%
[3]
  pest or weed control at 200 ppm: ≥ 80%
other
  melting point: 113 to 117 °C

## CC1(C)CCCN(Cc2ccc(-c3noc(C(F)(F)F)n3)c(F)c2)C1=O [Compound A-54, 1-[[3-fluoro-4-[5-(trifluoromethyl)-1,2,4-oxadiazol-3-yl]phenyl]methyl]-3,3-dimethyl-piperidin-2-one]
[1]
  inhibition of growth at 20 ppm: ≥ 80%
Phakopsora pachyrhizi
  pest or weed control at 200 ppm: ≥ 80%
[2]
  pest or weed control at 200 ppm: ≥ 80%
[3]
  pest or weed control at 200 ppm: ≥ 80%
other
  melting point: 69 to 73 °C

## CC(=O)N1CC(=O)N(Cc2ccc(-c3noc(C(F)(F)F)n3)cc2)C(=O)C1 [Compound A-55, 4-acetyl-1-[[4-[5-(trifluoromethyl)-1,2,4-oxadiazol-3-yl]phenyl]methyl]piperazine-2,6-dione]
[1]
  inhibition of growth at 20 ppm: ≥ 80%
Phakopsora pachyrhizi
  pest or weed control at 200 ppm: ≥ 80%
[2]
  pest or weed control at 200 ppm: ≥ 80%
[3]
  pest or weed control at 200 ppm: ≥ 80%
other
  melting point: 111 to 114 °C

## CN(C)C(=O)N1CC(=O)N(Cc2ccc(-c3noc(C(F)(F)F)n3)cc2)C(=O)C1 [Compound A-56, N,N-dimethyl-3,5-dioxo-4-[[4-[5-(trifluoromethyl)-1,2,4-oxadiazol-3-yl]phenyl]methyl]piperazine-1-carboxamide]
[1]
  inhibition of growth at 20 ppm: ≥ 80%
Phakopsora pachyrhizi
  pest or weed control at 200 ppm: ≥ 80%
[2]
  pest or weed control at 200 ppm: ≥ 80%
[3]
  pest or weed control at 200 ppm: ≥ 80%
other
  melting point: 138 to 141 °C

## CCOC(=O)N1CC(=O)N(Cc2ccc(-c3noc(C(F)(F)F)n3)cc2)C(=O)C1 [Compound A-57, ethyl 3,5-dioxo-4-[[4-[5-(trifluoromethyl)-1,2,4-oxadiazol-3-yl]phenyl]methyl]piperazine-1-carboxylate]
[1]
  inhibition of growth at 20 ppm: ≥ 80%
Phakopsora pachyrhizi
  pest or weed control at 200 ppm: ≥ 80%
[3]
  pest or weed control at 200 ppm: ≥ 80%
other
  melting point: 89 to 92 °C

## CNC(=O)N1CC(=O)N(Cc2ccc(-c3noc(C(F)(F)F)n3)cc2)C(=O)C1 [Compound A-58, N-methyl-3,5-dioxo-4-[[4-[5-(trifluoromethyl)-1,2,4-oxadiazol-3-yl]phenyl]methyl]piperazine-1-carboxamide]
[1]
  inhibition of growth at 20 ppm: ≥ 80%
Phakopsora pachyrhizi
  pest or weed control at 200 ppm: ≥ 80%
[3]
  pest or weed control at 200 ppm: ≥ 80%
other
  melting point: 148 to 153 °C

## O=C1CNC(=O)N1Cc1ccc(-c2noc(C(F)(F)F)n2)cc1 [Compound A-65, 3-[[4-[5-(trifluoromethyl)-1,2,4-oxadiazol-3-yl]phenyl]methyl]imidazolidine-2,4-dione]
[1]
  inhibition of growth at 20 ppm: ≥ 80%
Phakopsora pachyrhizi
  pest or weed control at 200 ppm: ≥ 80%
[3]
  pest or weed control at 200 ppm: ≥ 80%
other
  melting point: 200 to 203 °C

## O=C1CCON1Cc1c(F)cc(-c2noc(C(F)(F)F)n2)cc1F [Compound A-67, 2-[[2,6-difluoro-4-[5-(trifluoromethyl)-1,2,4-oxadiazol-3-yl]phenyl]methyl]isoxazolidin-3-one]
[1]
  inhibition of growth at 20 ppm: ≥ 80%
Phakopsora pachyrhizi
  pest or weed control at 200 ppm: ≥ 80%
[2]
  pest or weed control at 200 ppm: ≥ 80%
other
  melting point: 75 to 80 °C

## O=C1CCON1Cc1ccc(-c2noc(C(F)(F)F)n2)c(F)c1 [Compound A-68, 2-[[3-fluoro-4-[5-(trifluoromethyl)-1,2,4-oxadiazol-3-yl]phenyl]methyl]isoxazolidin-3-one]
[1]
  inhibition of growth at 20 ppm: ≥ 80%
Phakopsora pachyrhizi
  pest or weed control at 200 ppm: ≥ 80%
[2]
  pest or weed control at 200 ppm: ≥ 80%
[3]
  pest or weed control at 200 ppm: ≥ 80%
other
  melting point: 86 to 89 °C

## O=S1(=O)CCCN1Cc1ccc(-c2noc(C(F)(F)F)n2)cc1 [Compound B-1, 2-[[4-[5-(trifluoromethyl)-1,2,4-oxadiazol-3-yl]phenyl]methyl]-1,2-thiazolidine 1,1-dioxide]
[1]
  inhibition of growth at 20 ppm: ≥ 80%
Phakopsora pachyrhizi
  pest or weed control at 200 ppm: ≥ 80%
[2]
  pest or weed control at 200 ppm: ≥ 80%
[3]
  pest or weed control at 200 ppm: ≥ 80%
other
  melting point: 69 to 73 °C

## O=C1CCCN1c1ccc(-c2noc(C(F)(F)F)n2)cc1 [Compound C-1, 1-[4-[5-(trifluoromethyl)-1,2,4-oxadiazol-3-yl]phenyl]pyrrolidin-2-one]
[1]
  inhibition of growth at 20 ppm: ≥ 80%
Phakopsora pachyrhizi
  pest or weed control at 200 ppm: ≥ 80%
[2]
  pest or weed control at 200 ppm: ≥ 80%
[3]
  pest or weed control at 200 ppm: ≥ 80%
other
  melting point: 151 to 153 °C
